Columns and labels:
Format in all cases: cell-based
[1] = tested on: A549 lung (NSLC) cancer cells; assay: Anti-proliferative activity, cell-titre luminescent viability assay; conditions: Homo sapiens, 72 hours exposure
In short: (§1)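 Seeded cell lines attached 24 h (37° C, 5% CO2), then received compound for 72 h before a 30 min luminescent viability read versus untreated control. Four-point series (0.03–30 μM) gave IC50 by linear regression of semi-log percent-of-control plots; six-point series (0.1–30 μM) gave vehicle-normalized EC50 from variable-slope sigmoidal fits.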

[2] = tested on: CaCo2 colorectal cancer cells; assay: as above; conditions: Homo sapiens, Caco-2, 72 hours exposure
In short: as §1

[3] = tested on: DU145 prostate cancer cells; assay: as above; conditions: Homo sapiens, DU-145, 72 hours exposure
In short: as §1

[4] = tested on: MDA-MB-231 breast cancer cells; assay: as above; conditions: Homo sapiens, 72 hours exposure
In short: as §1

[5] = tested on: PC3 prostate cancer cells; assay: as above; conditions: 72 hours exposure
In short: as §1

[6] = tested on: SK-Mel-28 melanoma cells; assay: as above; conditions: Homo sapiens, 72 hours exposure
In short: as §1

[7] = tested on: SK-N-SH neuroblastoma cells; assay: as above; conditions: Homo sapiens, 72 hours exposure
In short: as §1

[8] = tested on: Tpm3.1-containing actin filaments in SK-N-SH neuroblastoma cells; assay: Disruption of Tpm3.1-containing actin filaments (γ9d staining); conditions: SK-N-SH cells, 0, 5 and 7.5 μM, 48 hours post treatment
Protocol: FIG. 2: Imaging and quantitation of Tpm3.1-containing actin filaments in SK-N-SH neuroblastoma cells treated with compound (A) 1007, (B) 1013 and (C) 1016. Cells were stained with γ9d (sheep polycolonal, 1:100) followed by 488-conjugated secondary (1:1000) and DAPI to visualize the Tpm3.1 containing filament bundles and the nucleus, respectively. Shown in the top panel is a representative gray scale immunofluorescent image from control (vehicle alone), 5 μM and 7.5 μM treated cells. […] The coloured lines indicate the detected Tpm3.1 containing actin filaments. Also shown is the quantitation of cell number, Tpm3.1 filament number/cell and Tpm3.1 filament number/cell area (μM^2). Statistical analysis was performed using a one way ANNOVA-multiple comparison where each drug treated group was compared to the control. ****p<0.0001.
Another assay was conducted to assess the ability of compounds 1007, 1013 and 1016 to specifically disrupt actin filaments containing Tpm3.1 (FIG. 2). Briefly, SK-N-SH neuroblastoma cells were seeded at 2×10^4 cells/mL in a 10 cm tissue culture plate and left to plate down 24 hours prior to treatment. Cells were then treated with 0, 5 and 7.5 μM of the test compounds. 48 hours post treatment, cells were fixed with 4% w/v paraformaldehyde (PBS), permeabilized with Triton-X-100 and stained with γ9d (sheep polycolonal, 1:100) followed by 488-conjugated secondary (1:1000) and DAPI to visualize the Tpm3.1 containing filament bundles and the nucleus, respectively. Single plane images were obtained on the Zeiss epifluorescent Axioscope microscope using a 20× objective. Six fields of view per condition were imaged. Images were then exported and the linear features (actin filaments containing Tpm3.1) were then quantitated using the linear feature detection algorithm described above.

[9] = tested on: IL-6; assay: Cytokine release from LPS-stimulated PBMCs (HTRF); conditions: PBMC, human PBMCs
Protocol: (§2) The ability of compounds 1004, 1007 and 1018 to inhibit the release of cytokines TNF-α, IFN-γ, IL-6, IL-21, IL-17A and IL-23 was evaluated in vitro (Tables 2 and 3). Briefly, human peripheral blood mononuclear cells (PBMCs) were isolated from human peripheral blood by Histopaque density gradient centrifugation. The freshly isolated PBMCs were seeded at 50,000 cells/well in a 96-well half area plate. PBMCs were dosed with the test compounds (at 10 μM, 1 μM and 0.1 μM) and then incubated at 37° C. and 5% CO2 for 2 hours. To stimulate release of the cytokines IFN-γ, IL-21, IL-17A and IL-23, the PBMCs were treated with 50 ng/mL of phorbol 12-myristate 13-acetate (PMA) and 1 μg/mL of ionomycin and to stimulate the release of TNF-α and IL-6, PBMCs were treated with 100 ng/mL of lipopolysaccharide (LPS) from gram-negative bacteria. The PBMCs were then incubated at 37° C. and 5% CO2 for a further 6 hours and the cell supernatant was collected and a Homogenous Time Resolved Fluorescence (HTRF) assay was carried out following the manufacturer's instructions. Cytokine release from the PBMCs was captured using a Perkin Elmer ENVISION 2104 microplate reader set at 615 nm and 665 nm respectively.

[10] = tested on: TNF-α; assay: Cytokine release from LPS-stimulated PBMCs (HTRF); conditions: PBMC, human PBMCs
Protocol: as §2

[11] = tested on: IFN-γ; assay: Cytokine release from PMA/ionomycin-stimulated PBMCs (HTRF); conditions: PBMC, human PBMCs, PMA and ionomycin
Protocol: as §2

[12] = tested on: IL-17A; assay: as above; conditions: PBMC, human PBMCs, PMA and ionomycin
Protocol: as §2

[13] = tested on: IL-21; assay: as above; conditions: PBMC, human PBMCs, PMA and ionomycin
Protocol: as §2

[14] = tested on: IL-23; assay: as above; conditions: PBMC, human PBMCs, PMA and ionomycin
Protocol: as §2

IC50 [1]: 1.9 µM
IC50 [2]: 2.8 µM
IC50 [3]: 3 µM
IC50 [4]: 2.4 µM
IC50 [5]: 3.2 µM
IC50 [6]: 1.2 µM
IC50 [7]: 1.6 µM
SMILES: CCN(CC)CCCn1c2ccccc2c2cc(C(=O)N3CCN(CCc4ccc(F)cc4)CC3)ccc21 [Compound 1007, (9-(3-(diethylamino)propyl)-9H-carbazol-3-yl)(4-(4-fluorophenethyl)piperazin-1-yl)methanone]
disruption of Tpm3.1-containing actin filaments [8]: disrupt Tpm3.1-containing actin filaments in a dose-dependent manner
inhibition at 0.1 µM ([9]; 0.1 μM): 38%
inhibition at 1 µM ([9]; 1 μM): 59%
inhibition at 10 µM ([9]; 10 μM): 89%
inhibition at 0.1 µM ([10]; 0.1 μM): 43%
inhibition at 1 µM ([10]; 1 μM): 60%
inhibition at 10 µM ([10]; 10 μM): 82%
inhibition at 0.1 µM ([11]; 0.1 μM): 8%
inhibition at 1 µM ([11]; 1 μM): 53%
inhibition at 10 µM ([11]; 10 μM): 90%
inhibition at 0.1 µM ([12]; 0.1 μM): -4%
inhibition at 1 µM ([12]; 1 μM): 22%
inhibition at 10 µM ([12]; 10 μM): 59%
inhibition at 0.1 µM ([13]; 0.1 μM): -7%
inhibition at 1 µM ([13]; 1 μM): -9%
inhibition at 10 µM ([13]; 10 μM): -4%
inhibition at 0.1 µM ([14]; 0.1 μM): -15%
inhibition at 1 µM ([14]; 1 μM): -11%
inhibition at 10 µM ([14]; 10 μM): -3%

— patent US20170158636A1, “FUNCTIONALISED AND SUBSTITUTED CARBAZOLES AS ANTI-CANCER AGENTS” (Novogen Ltd., priority 2014, published 2017)
